{"source": "patent US8604061B2", "about": "“2-aminooxazolines as TAAR1 ligands” (Hoffmann-La Roche Inc., priority 2007, dated 2013)"}
{"biological_target": "TAAR1 (Mus musculus, UniProt Q923Y8)", "experiment": "TAAR1 radioligand binding, membranes of stably transfected HEK293 cells (mouse)", "conditions": "not given", "procedure": "(§1) For the construction of expression plasmids the coding sequences of human, rat and mouse TAAR 1 were amplified from genomic DNA essentially as described by Lindemann et al.. The Expand High Fidelity PCR System (Roche Diagnostics) was used with 1.5 mM Mg^2+ and purified PCR products were cloned into pCR2.1-TOPO cloning vector (Invitrogen) following the instructions of the manufacturer. PCR products were subcloned into the pIRESneo2 vector (BD Clontech, Palo Alto, Calif.), and expression vectors were sequence verified before introduction in cell lines.\n(§2) HEK293 cells (ATCC #CRL-1573) were cultured essentially as described Lindemann et al. (2005). For the generation of stably transfected cell lines HEK293 cells were transfected with the pIRESneo2 expression plasmids containing the TAAR coding sequences (described above) with Lipofectamine 2000 (Invitrogen) according to the instructions of the manufacturer, and 24 hrs post transfection the culture medium was supplemented with 1 mg/ml G418 (Sigma, Buchs, Switzerland). After a culture period of about 10 d clones were isolated, expanded and tested for responsiveness to trace amines (all compounds purchased from Sigma) with the cAMP Biotrak Enzyme immunoassay (EIA) System (Amersham) following the non-acetylation EIA procedure provided by the manufacturer.\n(§3) Cells at confluence were rinsed with ice-cold phosphate buffered saline without Ca^2+ and Mg^2+ containing 10 mM EDTA and pelleted by centrifugation at 1000 rpm for 5 min at 4° C. The pellet was then washed twice with ice-cold phosphate buffered saline and cell pellet was frozen immediately by immersion in liquid nitrogen and stored until use at −80° C. Cell pellet was then suspended in 20 ml HEPES-NaOH (20 mM), pH 7.4 containing 10 mM EDTA, and homogenized with a Polytron (PT 3000, Kinematica) at 10,000 rpm for 10 s. The homogenate was centrifuged at 48,000×g for 30 min at 4° C. and the pellet resuspended in 20 ml HEPES-NaOH (20 mM), pH 7.4 containing 0.1 mM EDTA (buffer A), and homogenized with a Polytron at 10,000 rpm for 10 s. The homogenate was then centrifuged at 48,000×g for 30 min at 4° C. and the pellet resuspended in 20 ml buffer A, and homogenized with a Polytron at 10,000 rpm for 10 s. Protein concentration was determined by the method of Pierce (Rockford, Ill.). The homogenate was then centrifuged at 48,000×g for 10 min at 4° C., resuspended in HEPES-NaOH (20 mM), pH 7.0 including MgCl2 (10 mM) and […] homogenized with a Polytron at 10,000 rpm for 10 s.\n(§4) Binding assay was performed at 4° C. in a final volume of 1 ml, and with an incubation time of 30 min. […] Non-specific binding was defined as the amount of [^3H]-rac-2-(1,2,3,4-tetrahydro-1-naphthyl)-2-imidazoline bound in the presence of the appropriate unlabelled ligand (10 μM). Competing ligands were tested in a wide range of concentrations (10 pM-30 μM). […] Each experiment was performed in duplicate. All incubations were terminated by rapid filtration through UniFilter-96 plates (Packard Instrument Company) and glass filter GF/C, pre-soaked for at least 2 h in polyethylenimine 0.3%, and using a Filtermate 96 Cell Harvester (Packard Instrument Company). The tubes and filters were then washed 3 times with 1 ml aliquots of cold buffer B. Filters were not dried and soaked in Ultima gold (45 μl/well, Packard Instrument Company) and bound radioactivity was counted by a TopCount Microplate Scintillation Counter (Packard Instrument Company).", "units": {"Ki": "µM"}}
{"compound": "Cc1cc(C2(C)COC(N)=N2)ccc1Cl", "note": "(racemic) [Example 263, (RS)-4-(4-Chloro-3-methyl-phenyl)-4-methyl-4,5-dihydro-oxazol-2-ylamine]", "Ki": 0.0023}
{"compound": "CC1(c2cc(F)c(Cl)cc2F)COC(N)=N1", "note": "(racemic) [Example 271, (RS)-4-Methyl-4-(4-chloro-2,5-difluoro-phenyl)-4,5-dihydro-oxazol-2-ylamine]", "Ki": 0.0013}
{"compound": "Cc1ccc(Cl)cc1C1COC(N)=N1", "note": "(racemic) [Example 272, (RS)-4-(5-Chloro-2-methyl-phenyl)-4,5-dihydro-oxazol-2-ylamine]", "Ki": 0.0013}
{"compound": "NC1=NC(c2ccc(Br)cc2Cl)CO1", "note": "(racemic) [Example 291, (RS)-4-(4-Bromo-2-chloro-phenyl)-4,5-dihydro-oxazol-2-ylamine]", "Ki": 0.0008}
{"compound": "CC1(c2cc(Cl)ccc2Cl)COC(N)=N1", "note": "(racemic) [Example 299, (RS)-4-(2,5-Dichloro-phenyl)-4-methyl-4,5-dihydro-oxazol-2-ylamine]", "Ki": 0.0042}
{"compound": "NC1=NC(c2ccc(Br)cc2C(F)(F)F)CO1", "note": "(racemic) [Example 302, (RS)-4-(4-Bromo-2-trifluoromethyl-phenyl)-4,5-dihydro-oxazol-2-ylamine]", "Ki": 0.0017}
{"compound": "NC1=NC(c2ccc(Br)c(Cl)c2)CO1", "note": "(racemic) [Example 326, (RS)-4-(4-Bromo-3-chloro-phenyl)-4,5-dihydro-oxazol-2-ylamine]", "Ki": 0.001}
{"compound": "Cc1cc(F)ccc1C1COC(N)=N1", "note": "(racemic) [Example 337, (RS)-4-(4-Fluoro-2-methyl-phenyl)-4,5-dihydro-oxazol-2-ylamine]", "Ki": 0.0034}
{"compound": "CCc1cc(Cl)ccc1C1COC(N)=N1", "note": "(racemic) [Example 344, (RS)-4-(4-Chloro-2-ethyl-phenyl)-4,5-dihydro-oxazol-2-ylamine]", "Ki": 0.0025}
{"compound": "NC1=NC(c2ccc(Br)cc2F)CO1", "note": "(racemic) [Example 349, (RS)-4-(4-Bromo-2-fluoro-phenyl)-4,5-dihydro-oxazol-2-ylamine]", "Ki": 0.0023}
{"compound": "Cc1ccc(C2COC(N)=N2)cc1Cl", "note": "(racemic) [Example 351, (RS)-4-(3-Chloro-4-methyl-phenyl)-4,5-dihydro-oxazol-2-ylamine]", "Ki": 0.0024}
{"compound": "NC1=NC(c2ccc(Cl)cc2C2CC2)CO1", "note": "(racemic) [Example 359, (RS)-4-(4-Chloro-2-cyclopropyl-phenyl)-4,5-dihydro-oxazol-2-ylamine]", "Ki": 0.0021}
{"compound": "Cc1c(F)cccc1C1COC(N)=N1", "note": "(racemic) [Example 365, (RS)-4-(3-Fluoro-2-methyl-phenyl)-4,5-dihydro-oxazol-2-ylamine]", "Ki": 0.0029}
{"compound": "NC1=NC(c2cccc(F)c2C(F)(F)F)CO1", "note": "(racemic) [Example 371, (RS)-4-(3-Fluoro-2-trifluoromethyl-phenyl)-4,5-dihydro-oxazol-2-ylamine]", "Ki": 0.0096}
{"compound": "NC1=N[C@@H](c2ccc(F)cc2F)CO1", "note": "[37b (S), (S)-4-(2,4-Difluoro-phenyl)-4,5-dihydro-oxazol-2-ylamine]", "Ki": 0.0087}
{"compound": "Cc1ccccc1[C@H]1COC(N)=N1", "note": "[39a (S), (S)-4-o-Tolyl-4,5-dihydro-oxazol-2-ylamine]", "Ki": 0.0025}
{"compound": "NC1=N[C@@H](c2ccc(-c3ccccc3)cc2)CO1", "note": "[Example 21 (S), (S)-4-Biphenyl-4-yl-4,5-dihydro-oxazol-2-ylamine]", "Ki": 0.0008}
{"biological_target": "TAAR1 (Mus musculus, UniProt Q923Y8)", "experiment": "TAAR1 radioligand binding, membranes of stably transfected HEK293 cells (mouse)", "conditions": "mouse/rat; cell not marked 'rat'; radioligand [3H]-rac-2-(1,2,3,4-tetrahydro-1-naphthyl)-2-imidazoline, 4° C.; read-out: Ki (μM) mouse/rat", "procedure": "as §1, §2, §3, §4", "units": {"Ki": "µM"}}
{"compound": "CC1(c2ccc(F)c(F)c2F)COC(N)=N1", "note": "(racemic) [Example 269, (RS)-4-Methyl-4-(2,3,4-trifluoro-phenyl)-4,5-dihydro-oxazol-2-ylamine]", "Ki": 0.0083}
{"compound": "CC1(c2cc(F)c(F)c(F)c2)COC(N)=N1", "note": "(racemic) [Example 273, (RS)-4-Methyl-4-(3,4,5-trifluoro-phenyl)-4,5-dihydro-oxazol-2-ylamine]", "Ki": 0.0095}
{"compound": "Cc1cc(C2(C)COC(N)=N2)c(F)cc1Cl", "note": "(racemic) [Example 274, (RS)-4-(4-Chloro-2-fluoro-5-methyl-phenyl)-4-methyl-4,5-dihydro-oxazol-2-ylamine]", "Ki": 0.0011}
{"compound": "CC1(c2ccc(Cl)cc2Cl)COC(N)=N1", "note": "(racemic) [Example 294, (RS)-4-(2,4-Dichloro-phenyl)-4-methyl-4,5-dihydro-oxazol-2-ylamine]", "Ki": 0.0038}
{"compound": "NC1=NC(CCC2CCCCC2)CO1", "note": "(stereo in doubt) [Example 332, (S)-4-(2-Cyclohexyl-ethyl)-4,5-dihydro-oxazol-2-ylamine]", "Ki": 0.0061}
{"compound": "NC1=N[C@H](CCc2ccccc2)CO1", "note": "[80 (R), (R)-4-phenethyl-4,5-dihydro-oxazol-2-ylamine]", "Ki": 0.0083}
{"compound": "C[C@H](C[C@H]1COC(N)=N1)c1ccccc1", "note": "[82 (S, R), (S)-4-((R)-2-Phenyl-propyl)-4,5-dihydro-oxazol-2-ylamine]", "Ki": 0.0016}
{"compound": "C[C@@H](C[C@H]1COC(N)=N1)c1ccccc1", "note": "[82 (S, S), (S)-4-((S)-2-phenyl-propyl)-4,5-dihydro-oxazol-2-ylamine]", "Ki": 0.008}
{"compound": "NC1=N[C@@H](c2ccccc2Cl)CO1", "note": "[Example 4, (S)-4-(2-Chloro-phenyl)-4,5-dihydro-oxazol-2-ylamine]", "Ki": 0.0012}
{"compound": "NC1=N[C@@H](c2cccc(F)c2F)CO1", "note": "[Example 9, (S)-4-(2,3-Difluoro-phenyl)-4,5-dihydro-oxazol-2-ylamine]", "Ki": 0.0034}
{"compound": "NC1=N[C@@H](c2ccc(F)c(Br)c2F)CO1", "note": "[Example 29 (S), (S)-4-(3-Bromo-2,4-difluoro-phenyl)-4,5-dihydro-oxazol-2-ylamine]", "Ki": 0.0054}
{"compound": "NC1=N[C@@H](Cc2cccc3ccccc23)CO1", "note": "[Example 48, (S)-4-Naphthalen-1-ylmethyl-4,5-dihydro-oxazol-2-ylamine]", "Ki": 0.0002}
{"compound": "NC1=N[C@@H](Cc2ccc3ccccc3c2)CO1", "note": "[Example 49, (S)-4-Naphthalen-2-ylmethyl-4,5-dihydro-oxazol-2-ylamine]", "Ki": 0.0054}
{"compound": "NC1=N[C@@H](Cc2ccccc2Cl)CO1", "note": "[Example 60, (S)-4-(2-Chloro-benzyl)-4,5-dihydro-oxazol-2-ylamine]", "Ki": 0.0047}
{"compound": "NC1=N[C@@H](Cc2cccc(C(F)(F)F)c2)CO1", "note": "[Example 63, (S)-4-(3-Trifluoromethyl-benzyl)-4,5-dihydro-oxazol-2-ylamine]", "Ki": 0.0086}
{"compound": "NC1=N[C@@H](CCc2ccccc2)CO1", "note": "[Example 80 (S), (S)-4-Phenethyl-4,5-dihydro-oxazol-2-ylamine]", "Ki": 0.0008}
{"compound": "C[C@]1(CCc2ccccc2)COC(N)=N1", "note": "[Example 81 (S), (S)-4-Methyl-4-phenethyl-4,5-dihydro-oxazol-2-ylamine]", "Ki": 0.0064}
{"compound": "NC1=N[C@@H](CCc2ccc(F)cc2)CO1", "note": "[Example 85, (S)-4-[2-(4-Fluoro-phenyl)-ethyl]-4,5-dihydro-oxazol-2-ylamine]", "Ki": 0.0011}
{"compound": "COc1cc(CC[C@H]2COC(N)=N2)ccc1F", "note": "[Example 86, (S)-4-[2-(4-Fluoro-3-methoxy-phenyl)-ethyl]-4,5-dihydro-oxazol-2-ylamine]", "Ki": 0.0008}
{"compound": "NC1=N[C@@H](CCc2ccc(F)cc2F)CO1", "note": "[Example 88]", "Ki": 0.001}
{"compound": "NC1=N[C@@H](CCc2ccc(F)c(F)c2)CO1", "note": "[Example 89, (S)-4-[2-(3,4-Difluoro-phenyl)-ethyl]-4,5-dihydro-oxazol-2-ylamine]", "Ki": 0.0013}
{"compound": "NC1=N[C@@H](c2ccc(Cl)c(Cl)c2)CO1", "note": "[Example 91, (S)-4-(3,4-Dichloro-phenyl)-4,5-dihydro-oxazol-2-ylamine]", "Ki": 0.0006}
{"compound": "NC1=N[C@@H](c2cc(F)ccc2F)CO1", "note": "[Example 101, (S)-4-(2,5-Difluoro-phenyl)-4,5-dihydro-oxazol-2-ylamine]", "Ki": 0.0034}
{"compound": "NC1=N[C@@H](c2ccc3ccccc3c2)CO1", "note": "[Example 103, (S)-4-Naphthalen-2-yl-4,5-dihydro-oxazol-2-ylamine]", "Ki": 0.0004}
{"compound": "NC1=N[C@@H](c2ccc(Br)cc2)CO1", "note": "[Example 105, (S)-4-(4-Bromo-phenyl)-4,5-dihydro-oxazol-2-ylamine]", "Ki": 0.0007}
